Assay results reported in patent EP3858438A1, “3,4-DIHYDRO-2H-SPIRO[ISOQUINOLINE-1,4'-PIPERIDIN]AMIDE DERIVATIVES HAVING MULTIMODAL ACTIVITY AGAINST PAIN” (ESTEVE PHARMACEUTICALS, S.A., priority 2020, dated 2021).
Counter-ions that a name gives are not always drawn.

Key:
[1] = target: human α2δ-1 subunit of Cav2.2 calcium channel (Homo sapiens, UniProt P54289); test: Binding assay to human α2δ-1 subunit of Cav2.2 calcium channel ([3H]-Gabapentin); conditions: binding expressed as Ki; [3H]-Gabapentin 15 nM, human α2δ-1 enriched membranes
Experimental: Binding assay to human α2δ-1 subunit of Cav2.2 calcium channel.
Human α2δ-1 enriched membranes (2.5 µg) were incubated with 15 nM of radiolabeled [3H]-Gabapentin in assay buffer containing Hepes-KOH 10 mM, pH 7.4.
NSB (non specific binding) was measured by adding 10 µM pregabalin. The binding of the test compound was measured at either one concentration (% inhibition at 1 or 10 µM) or five different concentrations to determine affinity values (Ki). After 60 min incubation at 27 °C, binding reaction was terminated by filtering through Multiscreen GF/C (Millipore) presoaked in 0.5 % polyethyleneimine in Vacuum Manifold Station, followed by 3 washes with ice-cold filtration buffer containing 50 mM Tris-HCl, pH 7.4.
Filter plates were dried at 60 °C for 1 h and 30 µl of scintillation cocktail were added to each well before radioactivity reading.
Readings were performed in a Trilux 1450 Microbeta radioactive counter (Perkin Elmer).

human µ-opioid receptor = target: T1, human µ-opioid receptor (Homo sapiens, UniProt P35372); test: Binding assay to human µ-opioid receptor ([3H]-DAMGO, transfected CHO-K1 cell membranes); conditions: binding expressed as Ki, [3H]-DAMGO 1 nM
T1 construct: expressed in transfected cells; host or cells: CHO-K1
Experimental: Binding assay to human µ-opioid receptor
Transfected CHO-K1 cell membranes (20 µg) were incubated with [^3H]-DAMGO (1 nM) in assay buffer containing Tris-HCl 50 mM, MgCl2 5 mM at pH 7.4.
NBS (non-specific binding) was measured by adding 10 µM naloxone. The binding of the test compound was measured at either one concentration (% inhibition at 1 or 10 µM) or five different concentrations to determine affinity values (Ki). Plates were incubated at 27 °C for 60 min. After the incubation period, the reaction mixture was then transferred to MultiScreen HTS, FC plates (Millipore), filtered and plates were washed 3 times with ice-cold 10 mM Tris-HCl (pH 7.4).
Filters were dried and counted at approximately 40% efficiency in a MicroBeta scintillation counter (Perkin-Elmer) using EcoScint liquid scintillation cocktail.

T1 sequence (P35372 whole entry): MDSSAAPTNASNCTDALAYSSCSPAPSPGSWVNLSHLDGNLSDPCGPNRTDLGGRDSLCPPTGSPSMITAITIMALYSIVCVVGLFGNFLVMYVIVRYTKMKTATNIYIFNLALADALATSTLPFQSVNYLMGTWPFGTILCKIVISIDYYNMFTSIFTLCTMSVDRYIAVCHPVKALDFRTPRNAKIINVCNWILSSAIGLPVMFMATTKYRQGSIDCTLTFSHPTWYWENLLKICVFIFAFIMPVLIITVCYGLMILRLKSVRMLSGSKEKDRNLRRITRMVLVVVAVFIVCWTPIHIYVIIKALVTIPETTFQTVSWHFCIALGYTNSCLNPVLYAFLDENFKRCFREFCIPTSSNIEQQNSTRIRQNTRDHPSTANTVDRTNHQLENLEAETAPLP
Sequence of human α2δ-1 subunit of Cav2.2 calcium channel (P54289 25-1103): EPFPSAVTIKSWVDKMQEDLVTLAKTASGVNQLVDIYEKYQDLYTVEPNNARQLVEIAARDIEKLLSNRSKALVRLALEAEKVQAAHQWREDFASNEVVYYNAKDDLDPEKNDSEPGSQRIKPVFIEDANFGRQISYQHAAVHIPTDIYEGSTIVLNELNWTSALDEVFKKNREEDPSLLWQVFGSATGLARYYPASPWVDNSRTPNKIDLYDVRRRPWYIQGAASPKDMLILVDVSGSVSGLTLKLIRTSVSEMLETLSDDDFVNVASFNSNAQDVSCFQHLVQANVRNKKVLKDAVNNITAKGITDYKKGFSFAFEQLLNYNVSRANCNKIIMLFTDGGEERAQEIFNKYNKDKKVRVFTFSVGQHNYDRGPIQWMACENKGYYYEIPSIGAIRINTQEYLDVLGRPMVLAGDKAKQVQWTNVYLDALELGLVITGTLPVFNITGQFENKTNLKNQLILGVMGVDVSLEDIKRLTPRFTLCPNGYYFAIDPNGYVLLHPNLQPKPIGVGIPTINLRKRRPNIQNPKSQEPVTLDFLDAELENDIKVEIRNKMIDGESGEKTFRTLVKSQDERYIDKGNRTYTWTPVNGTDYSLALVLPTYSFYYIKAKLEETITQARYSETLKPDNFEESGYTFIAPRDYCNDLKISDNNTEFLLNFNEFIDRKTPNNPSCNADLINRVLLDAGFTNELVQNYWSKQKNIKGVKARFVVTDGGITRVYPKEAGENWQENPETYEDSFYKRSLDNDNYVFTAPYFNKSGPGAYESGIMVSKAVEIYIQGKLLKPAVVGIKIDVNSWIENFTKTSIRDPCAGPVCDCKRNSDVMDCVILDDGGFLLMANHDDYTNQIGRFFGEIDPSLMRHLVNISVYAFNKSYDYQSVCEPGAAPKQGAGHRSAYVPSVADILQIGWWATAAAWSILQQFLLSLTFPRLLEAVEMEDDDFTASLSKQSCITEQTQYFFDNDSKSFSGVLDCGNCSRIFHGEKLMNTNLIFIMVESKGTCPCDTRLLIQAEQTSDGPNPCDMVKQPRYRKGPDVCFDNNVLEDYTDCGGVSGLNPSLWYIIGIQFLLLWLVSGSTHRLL

Row | SMILES | Ki [1] | Ki (human µ-opioid receptor)
1 | CC[C@@H](c1cccc(Cl)c1)[C@@H](CN)C(=O)N1CCC2(CC1)c1ccccc1CCN2C [Example 4, (2S,3R)-2-(aminomethyl)-3-(3-chlorophenyl)-1-(2-methyl-3,4-dihydro-2H-spiro[isoquinoline-1,4'-piperidin]-1'-yl)pentan-1-one] | < 0.5 µM | < 0.1 µM
2 | CC[C@@H](c1ccccc1)[C@@H](CN)C(=O)N1CCC2(CC1)c1ccccc1CCN2C [Example 1] | < 0.5 µM | < 0.1 µM
3 | CC[C@@H](c1cccc(Cl)c1)[C@@H](CNC)C(=O)N1CCC2(CC1)c1ccccc1CCN2C [Example 3, (2S,3R)-3-(3-chlorophenyl)-1-(2-methyl-3,4-dihydro-2H-spiro[isoquinoline-1,4'-piperidin]-1'-yl)-2-((methylamino)methyl)pentan-1-one dihydrochloride] | < 0.5 µM | 0.1 to 0.5 µM
4 | CNC[C@@H](C(=O)N1CCC2(CC1)c1ccccc1CCN2C)[C@@H](C)c1ccccc1 [Example 2, (2S,3R)-1-(2-methyl-3,4-dihydro-2H-spiro[isoquinoline-1,4'-piperidin]-1'-yl)-2-((methylamino)methyl)-3-phenylbutan-1-one] | < 0.5 µM | 0.1 to 0.5 µM
